Values after ≈ are worked out from the molar mass of the structure shown. Read-outs that look alike come from different tables or passages of the source.
Assays:
[1] = Partition coefficient Log (D), 1-octanol / pH 7.4 buffer; type: physicochemical; conditions: water-saturated 1-octanol / pH 7.4 buffer, room temperature
Experimental: The partition coefficient, Log (D), between water-saturated 1-octanol and pH 7.4 buffer was determined for the test compounds. The buffer was prepared as described in section 2. A 12 μl aliquot of a 10 mM stock solution in DMSO was introduced to a vial containing 0.60 mL of octanol and 0.60 mL of buffer at room temperature. Testosterone was also added to a final concentration of 100 μM as an internal control. The solution was vortexed for 60 minutes and centrifuged at 10,000 rpm for 10 minutes. The organic and aqueous layers were removed. Serial dilutions of the organic layer were made with 50% methanol except for the initial dilution, which was made in 100% methanol. Serial dilutions of the aqueous layer were made in the pH 7.4 buffer. The diluted samples were then assayed by LC/MS for the compound as well as for testosterone. The Log of the ratio of peak area responses was calculated to obtain the Log (D). Typical Log D values for testosterone are from 3.0-3.3.

[2] = Bi-directional permeability, CACO-2; type: in vitro ADME
Experimental: (§1) Caco-2 monolayers were grown to confluence on collagen-coated, microporous, polycarbonate membranes in 12-well Costar Transwell plates. Details of the plates and their certification are shown below. The permeability assay buffer was Hank's Balanced Salt Solution containing 10 mM HEPES and 15 mM glucose at a pH of 7.0±0.2. The dosing solution concentration was 10 μM in assay buffer. At each time point, 1 and 2 hours, a 200-μL aliquot was taken from the receiver chamber and replaced with fresh assay buffer. Cells were dosed on the apical side (A-to-B) or basolateral side (B-to-A) and incubated at 37° C. with 5% CO2 and 90% relative humidity. Each determination was performed in duplicate. The important experimental parameters are outlined below. Permeability through a cell-free (blank) membrane was studied to determine non-specific binding and free diffusion of the compound through the device. Lucifer yellow flux was also measured for each monolayer after being subjected to the test compounds to ensure no damage was inflicted to the cell monolayers during the flux period.
(§2) All samples were assayed by LC/MS using electrospray ionization. Typical LC/MS conditions are as follows:
(§3) dCr/dt is the cumulative concentration in the receiver compartment versus time in M s^−1.
(§4) Vr is the volume of the receiver compartment in cm^3.
(§5) Vd is the volume of the donor compartment in cm^3.
(§6) A is the area of the cell monolayer (1.13 cm^2 for 12-well Transwell).
(§7) C0 is the concentration of the dosing solution in M.
(§8) Cr^final is the cumulative receiver concentration in M at the end of the incubation period.
(§9) Cd^final is the concentration of the donor in M at the end of the incubation period.

Caco-2 monolayers = assay: Bi-directional permeability, CACO-2; type: in vitro ADME
Experimental: as §1, §2, §3, §4, §5, §6, §7, §8, §9

[3] = test system: mutated ecdysone receptor-based gene switch; assay: In vivo SEAP induction, ligand administered in rodent chow; set-up: species or system C57BL/6 mouse; conditions: feed 2 g/kg ad libitum
Experimental: Applicants' ligands are useful in various applications including gene therapy, expression of proteins of interest in host cells, production of transgenic organisms, and cell-based assays. In vivo induction of a reporter enzyme with various ligands of the present invention was evaluated in a C57BL/6 mouse model system containing a gene switch.
Each element of the gene switch was on a separate plasmid. Receptor expression was under the control of a CMV promoter (SEQ ID NO: 15). Induction was evaluated by the amount of reporter protein expressed in the presence of ligand.
SEAP expression in serum of mice was evaluated after electroporation of the gene switch into mouse quadriceps. Mice were anesthetized with 2 μL/g of a mixture of ketamine (100 mg/mL) and xylazine (20 mg/mL). Animals were then shaved, DNA vectors injected into the muscle in a volume of 2×50 μL polyglutamic acid (12 mg/mL water), electrode conductivity gel applied, and an electrode caliber (1 cm×1 cm; model 384) was placed on hind leg. The muscle was electroporated with 200 V/cm, 8 times, for 20 msec/pulse, at 1 sec time intervals. The transverse electrical field direction was reversed after the animals received half of the pulses. Electroporation was performed with an ECM 830 electroporator from BTX Molecular Delivery Systems.
In some experiments mice received an intraperitoneal injection (IP) of 2.6 μmol of ligand in 50 μL of DMSO 3 days after electroporation of the gene switch. In other experiments the concentration of ligand was decrease to 26 nmol/50 μL of DMSO/mouse. SEAP expression was evaluated 2-11 days after ligand administration. In other experiments ligand was administered in rodent chow. The chow was prepared by dissolving 2 g of ligand in 20 mL of acetone and adding it to 1 kg of LabDiet 5010 autoclavable chow from Purina Mills. This was thoroughly mixed in a Hobart mixer and then mixed for an additional 15 min in a Cross Blend mixer. Animals received chow ad libitum for 1, 2, or 3 days. All values are the average from four animals. Background SEAP in sera from animals treated with vector alone without ligand addition was 0-11 ng/mL serum.
Mouse serum was obtained by centrifugation of blood acquired by retroorbital bleeding with a small glass capillary tube. SEAP quantification was determined using a Clontech Great Escape chemiluminescence kit and by comparison with the Clontech SEAP standard.
Table 11: Induction of SEAP in C57BL/6 mice with GS™-E ligand or RG-103309 administered in rodent chow. SEAP expression in serum of mice was evaluated after electroporation of the gene expression cassettes into mouse quadriceps. Mice received GS™-E ligand or RG-103309 in their feed (2 g/kg) 3 days after electroporation. Feed was administered ad libitum for 1, 2, or 3 days. After each interval ligand-treated feed was removed and animals received untreated feed. Values are the average from 4 animals.

[4] = Aqueous equilibrium solubility in pH 7.4 buffer; conditions: pH 7.4 aqueous phosphate buffer, pH 7.4, aqueous buffer, thermodynamic from solid
Experimental: (§10) Equilibrium solubility was measured in pH 7.4 aqueous buffer. The buffer was prepared by adjusting the pH of a 0.07 M solution of NaH2PO4 to pH 7.4 with 10 N NaOH. […] At least 1 mg of powder was combined with 1 mL of buffer to make >1 mg/mL mixture. These samples were shaken for ≧2 hours and left to stand overnight at room temperature. The samples were then filtered through a 0.45-μm Nylon syringe filter that was first saturated with the sample. The filtrate was sampled twice, consecutively. The filtrate was assayed by HPLC against standards prepared in methanol.

physchem [5] = conditions: water, kinetic from dmso stock
Experimental: Aqueous solutions are prepared as follows in triplicate: 50 μl of a 10,000 ppm solution (2,000 μg of solid dissolved in 200 μl of methanol) of the substrate in methanol or DMSO is added to 1 mL of de-ionized water in a 2 dram or smaller vial with magnetic stirring. Stirring is continued overnight at ambient temperature. The slurry is taken up into a syringe with a luer tip. The contents are passed through a new 13 mm 0.2 ρM Acrodisc filter (tuffryn or glass fiber) into an autosampler bottle. For preparation of calibration standard solutions: dilutions of the 10,000 ppm solution were prepared at 10, 5, 1, 0.5, and 0.2 ppm. […] For more soluble materials, dilution of the samples into this range is preferable to increasing the calibration range because the non-linearity of the response results in less useful calibration curves. However a shift in the range of calibration standards is required for very insoluble compounds.
Chromatography of the samples was then preformed. For most diacylhydrazines the following conditions were adequate for the measurement. Other columns and gradients may be substituted as appropriate.
Analysis of the test samples is conducted as follows: Each solubility replicate is analyzed in duplicate. […] Standard curves are obtained from duplicate injections of the standards. The concentration of the substrate is determined by calculation from the equation relating concentration and response.

physchem [6] = conditions: pH 7.4, aqueous buffer, thermodynamic from solid
Experimental: as §10

[7] = Caco-2, pH 7, cell-free (blank) membrane, 10 μM, read-out: Percent Recovery Blank
[8] = human, Caco-2, pH 7, Caco-2, apical-to-basolateral, 10 μM, read-out: Percent Recovery A-to-B
[9] = human, Caco-2, pH 7, Caco-2, basolateral-to-apical, 10 μM, read-out: Percent Recovery B-to-A
[10] = human, Caco-2, pH 7, Papp, A-to-B Avg
[11] = human, Caco-2, pH 7, Papp, A-to-B Rep. 1
[12] = human, Caco-2, pH 7, Papp, A-to-B Rep. 2
[13] = human, Caco-2, pH 7, Papp, B-to-A Avg
[14] = human, Caco-2, pH 7, Papp, B-to-A Rep. 1
[15] = human, Caco-2, pH 7, Papp, B-to-A Rep. 2

Q: Which results are given for `CCc1c(OC)cccc1C(=O)NN(C(=O)c1cc(C)cc(C)c1)C(C)(C)C` [RG-102240, N-(3-methoxy-2-ethylbenzoyl)-N′-(3,5-dimethylbenzoyl)-N′-tert-butylhydrazine]?
A: Log(D) Octanol/pH 7.4 [1]: 3.4; Papp at 2 h, 10 µM ([2]; Caco-2, pH 7, cell-free (blank) membrane, 10 μM, read-out: Papp Blank): 284 nm/s; recovery at 2 h, 10 μM [2, 7]: 78%; Papp A→B at 2 h, 10 µM ([2]; human, Caco-2, pH 7, Caco-2, 10 μM, average of 2 replicates, read-out: Papp, A-to-B Avg): 318 nm/s; Papp B→A at 2 h, 10 µM ([2]; human, Caco-2, pH 7, Caco-2, 10 μM, average of 2 replicates, read-out: Papp, B-to-A Avg): 235 nm/s; Papp A→B at 2 h, 10 µM ([2]; human, Caco-2, pH 7, Caco-2, 10 μM, replicate 1, read-out: Papp, A-to-B Rep. 1): 323 nm/s; Papp B→A at 2 h, 10 µM ([2]; human, Caco-2, pH 7, Caco-2, 10 μM, replicate 1, read-out: Papp, B-to-A Rep. 1): 233 nm/s; Papp A→B at 2 h, 10 µM ([2]; human, Caco-2, pH 7, Caco-2, 10 μM, replicate 2, read-out: Papp, A-to-B Rep. 2): 314 nm/s; Papp B→A at 2 h, 10 µM ([2]; human, Caco-2, pH 7, Caco-2, 10 μM, replicate 2, read-out: Papp, B-to-A Rep. 2): 237 nm/s; recovery at 2 h, 10 μM [2, 8]: 94%; recovery at 2 h, 10 μM [2, 9]: 87%; efflux ratio at 2 h, 10 μM ([2]; human, pH 7, Caco-2 efflux ratio, read-out: Papp B-A / Papp A-B Ratio): 0.7; Absorption Potential (Caco-2 monolayers; classification from Papp(A-to-B)): High (Papp(A-to-B) ≧ 1.0 × 10^−6 cm/s High); Significant Efflux (Caco-2 monolayers; classification from Papp(B-to-A) and ratio): No; Secreted Alkaline Phosphatase Day 2 ([3]; dose period 1 day): 7,302 ng/ml mouse sera; Secreted Alkaline Phosphatase Day 3 ([3]; dose period 1 day): 7,670 ng/ml mouse sera; Secreted Alkaline Phosphatase Day 7 ([3]; dose period 1 day): 3,784 ng/ml mouse sera; Secreted Alkaline Phosphatase Day 2 ([3]; dose period 2 day): 13,046 ng/ml mouse sera; Secreted Alkaline Phosphatase Day 3 ([3]; dose period 2 day): 15,831 ng/ml mouse sera; Secreted Alkaline Phosphatase Day 7 ([3]; dose period 2 day): 8,816 ng/ml mouse sera; Secreted Alkaline Phosphatase Day 2 ([3]; dose period 3 day): 8,064 ng/ml mouse sera; Secreted Alkaline Phosphatase Day 3 ([3]; dose period 3 day): 11,392 ng/ml mouse sera; Secreted Alkaline Phosphatase Day 7 ([3]; dose period 3 day): 8,372 ng/ml mouse sera; solubility [4]: 0.7 µg/mL (≈ 1.83 µM)

Q: Which “Log(D) Octanol/pH 7.4” value [1] does the source give for `Cc1cc(C)cc(C(=O)N(NC(=O)c2ccc3c(c2C)OCCO3)C(C)(C)C)c1` [RG-102317, N-(5-methyl-1,4-benzodioxan-6-carbonyl)-N′-(tert-butyl)-N′-(3,5-dimethylbenzoyl)hydrazine] here?
A: 3.6

Q: What about the Papp at 2 h, 10 µM ([2]; Caco-2, pH 7, Papp Blank) of the same molecule?
A: 279 nm/s

Q: What about the recovery at 2 h, 10 μM [2, 7] of the same molecule?
A: 87%

Q: And the efflux ratio at 2 h, 10 μM ([2]; human, Caco-2, pH 7)?
A: 0.8

Q: And the recovery at 2 h, 10 μM [2, 8]?
A: 91%

Q: And the recovery at 2 h, 10 μM [2, 9]?
A: 86%

Q: What about the Papp A→B at 2 h, 10 µM [2, 10] of the same molecule?
A: 280 nm/s

Q: What about the Papp A→B at 2 h, 10 µM [2, 11] of the same molecule?
A: 286 nm/s

Q: What about the Papp A→B at 2 h, 10 µM [2, 12] of the same molecule?
A: 273 nm/s

Q: What about the Papp B→A at 2 h, 10 µM [2, 13] of the same molecule?
A: 211 nm/s

Q: And the Papp B→A at 2 h, 10 µM [2, 14]?
A: 210 nm/s

Q: And the Papp B→A at 2 h, 10 µM [2, 15]?
A: 212 nm/s

Q: What about the “Significant Efflux” value (Caco-2 monolayers; Caco-2) of the same molecule?
A: No

Q: What about the solubility kinetic (physchem [5]) of the same molecule?
A: 10.1 µM (≈ 4 µg/mL)

Q: And the solubility (physchem [6])?
A: 4.3 µg/mL (≈ 10.8 µM)

Q: What does the source list for `CCC(N(NC(=O)c1cccc(C)c1C)C(=O)c1cc(C)cc(C)c1)C(C)(C)C` (centres unmarked) [RG-103309, 3,5-dimethyl-benzoic acid N′-(2,3-dimethyl-benzoyl)-N-(1-ethyl-2,2-dimethyl-propyl)-hydrazide]?
A: Log(D) Octanol/pH 7.4 [1]: 3.0; Papp at 2 h, 10 µM ([2]; Caco-2, pH 7, Papp Blank): 236 nm/s; recovery at 2 h, 10 μM ([2]; Caco-2, pH 7, Percent Recovery Blank): 70%; efflux ratio at 2 h, 10 μM ([2]; human, Caco-2, pH 7): 1.3; Papp A→B at 2 h, 10 µM [2, 10]: 245 nm/s; Papp A→B at 2 h, 10 µM [2, 11]: 252 nm/s; Papp A→B at 2 h, 10 µM [2, 12]: 238 nm/s; Papp B→A at 2 h, 10 µM [2, 13]: 325 nm/s; Papp B→A at 2 h, 10 µM [2, 14]: 325 nm/s; Papp B→A at 2 h, 10 µM [2, 15]: 325 nm/s; recovery at 2 h, 10 μM ([2]; human, Caco-2, pH 7, Percent Recovery A-to-B): 74%; recovery at 2 h, 10 μM ([2]; human, Caco-2, pH 7, Percent Recovery B-to-A): 75%; Significant Efflux (Caco-2 monolayers; Caco-2): No; Secreted Alkaline Phosphatase Day 2 ([3]; dose period 1 day): 9,003 ng/ml mouse sera; Secreted Alkaline Phosphatase Day 3 ([3]; dose period 1 day): 14,850 ng/ml mouse sera; Secreted Alkaline Phosphatase Day 7 ([3]; dose period 1 day): 5,172 ng/ml mouse sera; Secreted Alkaline Phosphatase Day 2 ([3]; dose period 2 day): 6,971 ng/ml mouse sera; Secreted Alkaline Phosphatase Day 3 ([3]; dose period 2 day): 16,518 ng/ml mouse sera; Secreted Alkaline Phosphatase Day 7 ([3]; dose period 2 day): 7,460 ng/ml mouse sera; Secreted Alkaline Phosphatase Day 2 ([3]; dose period 3 day): 11,126 ng/ml mouse sera; Secreted Alkaline Phosphatase Day 3 ([3]; dose period 3 day): 20,373 ng/ml mouse sera; Secreted Alkaline Phosphatase Day 7 ([3]; dose period 3 day): 11,549 ng/ml mouse sera; solubility [4]: ≤ 0.2 µg/mL
